The term mass density denotes the mass of a sample divided by its volume. For orientation: refractive index means the speed of light in vacuum divided by its phase velocity in the sample.

The conditions of data set [1]: 298.2 K; 101.33 kPa; Liquid; Vibrating tube method.
Data set [2] in a line: refractive index (Na D-line) (dimensionless). Particulars: 298.2 K; 101.33 kPa; Liquid; Standard Abbe refractometry.

± gives the expanded uncertainty stated by the source.

With `CC(O)C(=O)O` (stereo not drawn) [2-hydroxypropanoic acid], in data set [1], the mass density is reported as 1199.91 ± 87 kg/m3. Further, in data set [2], the refractive index was 1.4243 ± 0.003.

As for `CCCCO` [butan-1-ol], in data set [1], the mass density turned out to be 805.877 ± 0.63 kg/m3. Further, the refractive index in data set [2] turned out to be 1.3972 ± 0.0004.

`CCC(C)O` (stereo not drawn) [butan-2-ol]: the mass density in data set [1] was 802.362 ± 0.63 kg/m3. Further, the refractive index in data set [2] stood at 1.394 ± 0.0004.

As for `CCCCCCCO` [heptan-1-ol], the mass density in data set [1] came out at 818.915 ± 0.63 kg/m3. In data set [2], the refractive index was determined as 1.4224 ± 0.0004.

Turning to `CCCCCCO` [hexan-1-ol], in data set [1], the mass density worked out at 815.167 ± 0.83 kg/m3. Moreover, in data set [2], the refractive index was found to be 1.416 ± 0.0005.

For the molecule `CCCCCO` [pentan-1-ol], in data set [1], the mass density was 811.288 ± 0.63 kg/m3. The refractive index in data set [2] stood at 1.4078 ± 0.0004.

On to `O` [water], for which, in data set [2], the refractive index came to 1.3325 ± 0.0004.

The record behind these values is the NIST ThermoML archive (doi:10.1016/j.fluid.2013.06.007).
